Experimental data reported in US20210179680A1, “POLYPEPTIDE, DERIVATIVES THEREOF, AND APPLICATION THEREOF IN PREPARATION OF DRUGS HAVING RESISTANCE TO PULMONARY FIBROSIS” (priority 2016, published 2021).
Bridge positions count the residues as written; N and C are the ends. Square brackets hold non-standard residues; d marks the D form. Peptide text beside a SMILES is read from it. S5 = C=CCCC[C@](C)(N)C(=O)O

How the values were obtained:
[1] = system: mice with bleomycin-induced pulmonary fibrosis; test: Survival rate of mice with bleomycin-induced pulmonary fibrosis; format: in vivo, C57BL/6 mice; settings: twice a week
Experimental: Male C57BL/6 mice were fasted overnight, then anesthetized with 45 mg/kg sodium pentobarbital by injection intraperitoneally (i.p.), and intratracheally injected with bleomycin at a dose of 3 U/kg. The specific operation steps are as follows: cut the neck skin of the mouse with as little trauma as possible, expose the trachea with the assistance of elbow ophthalmic forceps, puncture the trachea and inject about 50 μL of bleomycin into the trachea with a microsyringe, rotate the mouse quickly and stand it upright for 5 minutes in order to make bleomycin evenly enter the left and right lobe, thereby constructing an animal model. The whole operation was performed at a surgical table at about […]. Mice in the sham operation group were intratracheally injected with an equal amount of physiological saline for injection.
The animal model with pulmonary fibrosis was prepared according to the method described in Example 2. The peptide therapy was started from the 10th day after modeling (the treatment groups are shown in Table 3), and the time was calculated from the 10th day after modeling to count the mortality rate. The death situation of each group of experimental animals was counted and calculated daily. […] The survival rate is the percentage of the number of mice that survived accounting for the number of mice in the whole group. Results are shown in FIG. 6-1, FIG. 6-2 and Table 4. […] In FIG. 6-1 and FIG. 6-2, “##” represents that P value is less than 0.01 when the survival rate of administration group was compared with that of the sham operation group; “*” represents that P value is less than 0.05 when the survival rate of administration group was compared with that of the bleomycin group; “**” represents that P value is less than 0.01 when the survival rate of administration group was compared with that of bleomycin group; and “i.p.” refers to intraperitoneal injection.
The animal model of pulmonary fibrosis was prepared according to the method described in Example 2. The polypeptide treatment was started from the 10th day after modeling (the treatment groups are shown in Table 9), and the time was calculated from the 10th day after modeling to count the mortality rate. The mortality rate of each group of experimental animals was recorded and calculated daily. If none of the animals in a group died, the survival rate of the group is 100%. If all the animals in a group died, the survival rate is 0%. […] In FIG. 12, “##” represents that P value is less than 0.01 when the survival rate of the administration groups were compared with that of the sham operation group; “*” represents that P value is less than 0.05 and “**” represents that P value is less than 0.01 when the survival rate of the administration groups were compared with bleomycin group.

[2] = target: T1, TRB3/MDM2 protein interaction (Homo sapiens, UniProt Q96RU7); test: Co-immunoprecipitation: inhibition of binding of MDM2 to TRB3 in BEAS-2B cells; format: cell-based; settings: BEAS-2B cells with TRB3 expression plasmid, 1 mg/mL polypeptide, 12 hours, co-IP with MDM2 antibody
T1 construct: host or cells: BEAS-2B
T1 sequence (Q96RU7 1-358): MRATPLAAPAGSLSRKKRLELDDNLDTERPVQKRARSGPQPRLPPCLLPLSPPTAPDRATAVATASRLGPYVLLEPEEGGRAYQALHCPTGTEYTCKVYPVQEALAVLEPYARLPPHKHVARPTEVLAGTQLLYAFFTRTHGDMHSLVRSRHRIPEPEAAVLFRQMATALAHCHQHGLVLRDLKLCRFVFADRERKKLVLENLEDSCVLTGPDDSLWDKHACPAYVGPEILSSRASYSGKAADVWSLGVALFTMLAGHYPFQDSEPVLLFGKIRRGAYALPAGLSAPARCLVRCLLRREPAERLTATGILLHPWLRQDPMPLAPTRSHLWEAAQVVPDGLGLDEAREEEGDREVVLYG
Experimental: 1. Human lung epithelial BEAS-2B cells (purchased from Institute of Basic Medical Sciences, Chinese Academy of Medical Sciences) were seeded in a 90 mm^2 culture dish. After the cells were adhered to the wall of culture dish, the TRB3 expression plasmid were transferred to the cells according to the method described in Example 5. After 24 hours, 1 mg/mL of the polypeptides MR2, S1, S2, S3, S4, S5, S6, S7, S8, S9, S10 or S11 prepared in Example 1 were added respectively, and the cells were incubated for 12 hours in a 37° C. incubator and then harvested.
2. Co-immunoprecipitation with MDM2 antibody was performed according to the method described in Example 3, followed by detection using TRB3 antibody.

[3] = Table 3 groups: 2 mg/kg i.p., 10th to 28th day after modeling
[4] = Table 9 groups (S19-S21): 2 mg/kg i.p., 10th to 28th day after modeling
[5] = Table 9 groups (S19-S21): 2 mg/kg i.p.

Compound | Survival rate (%) 7 days [1, 3] | Survival rate (%) 14 days [1, 3] | Survival rate (%) 21 days [1, 3] | Survival rate (%) 28 days [1, 3] | interaction of TRB3 and MDM2 protein (FIG. 5, in words) [2] | Survival rate (%) 7 days [1, 4] | Survival rate (%) 14 days [1, 5] | Survival rate (%) 21 days [1, 5] | Survival rate (%) 28 days [1, 5]
CSCC[C@H](NC(=O)[C@H](CC(C)C)NC(=O)[C@@H](N)Cc1c[nH]cn1)C(=O)N[C@@H](C)C(=O)N[C@@H](CS)C(=O)N[C@@H](Cc1ccccc1)C(=O)N[C@H](C(=O)N[C@@H](CS)C(=O)N[C@@H](C)C(=O)N[C@@H](CCCCN)C(=O)N[C@@H](CCCCN)C(=O)N[C@@H](CC(C)C)C(=O)N[C@@H](CCCCN)C(=O)N[C@@H](CCCCN)C(=O)N[C@@H](CCCNC(=N)N)C(=O)O)[C@@H](C)O [MR2] (H-HLMACFTCAKKLKKR-OH; N-terminus and C-terminus assumed) | 100% | 93.33% | 73.33% | 66.67% | interrupted | – | – | – | –
CSCC[C@@H]1NC(=O)[C@H](CC(C)C)NC(=O)[C@@](C)(N)CCCC=CCCC[C@@](C)(C(=O)N[C@@H](Cc2ccccc2)C(=O)N[C@H](C(=O)N[C@@H](CS)C(=O)N[C@@H](C)C(=O)N[C@@H](CCCCN)C(=O)N[C@@H](CCCCN)C(=O)N[C@@H](CC(C)C)C(=O)N[C@@H](CCCCN)C(=O)N[C@@H](CCCCN)C(=O)N[C@@H](CCCNC(=N)N)C(=O)O)[C@@H](C)O)NC(=O)[C@H](C)NC1=O [S1, S5-Leu-Met-Ala-S5-Phe-Thr-Cys-Ala-Lys-Lys-Leu-Lys-Lys-Arg] (H-[S5]LMA[S5]FTCAKKLKKR-OH; staple 1-5; N-terminus and C-terminus assumed) | 100% | 86.67% | 80% | 80% | interrupted | – | – | – | –
CSCC[C@@H]1NC(=O)[C@@](C)(NC(=O)[C@@H](N)Cc2c[nH]cn2)CCCC=CCCC[C@@](C)(C(=O)N[C@H](C(=O)N[C@@H](CS)C(=O)N[C@@H](C)C(=O)N[C@@H](CCCCN)C(=O)N[C@@H](CCCCN)C(=O)N[C@@H](CC(C)C)C(=O)N[C@@H](CCCCN)C(=O)N[C@@H](CCCCN)C(=O)N[C@@H](CCCNC(=N)N)C(=O)O)[C@@H](C)O)NC(=O)[C@H](CS)NC(=O)[C@H](C)NC1=O [S2, His-S5-Met-Ala-Cys-S5-Thr-Cys-Ala-Lys-Lys-Leu-Lys-Lys-Arg] (H-H[S5]MAC[S5]TCAKKLKKR-OH; staple 2-6; N-terminus and C-terminus assumed) | 100% | 100% | 80% | 80% | interrupted | – | – | – | –
CC(C)C[C@H](NC(=O)[C@H](CCCCN)NC(=O)[C@H](CCCCN)NC(=O)[C@H](C)NC(=O)[C@H](CS)NC(=O)[C@]1(C)CCCC=CCCC[C@](C)(NC(=O)[C@H](CC(C)C)NC(=O)[C@@H](N)Cc2c[nH]cn2)C(=O)N[C@@H](C)C(=O)N[C@@H](CS)C(=O)N[C@@H](Cc2ccccc2)C(=O)N1)C(=O)N[C@@H](CCCCN)C(=O)N[C@@H](CCCCN)C(=O)N[C@@H](CCCNC(=N)N)C(=O)O [S3, His-Leu-S5-Ala-Cys-Phe-S5-Cys-Ala-Lys-Lys-Leu-Lys-Lys-Arg] (H-HL[S5]ACF[S5]CAKKLKKR-OH; staple 3-7; N-terminus and C-terminus assumed) | 100% | 93.33% | 86.67% | 86.67% | interrupted | – | – | – | –
CSCC[C@H](NC(=O)[C@H](CC(C)C)NC(=O)[C@@H](N)Cc1c[nH]cn1)C(=O)N[C@@]1(C)CCCC=CCCC[C@@](C)(C(=O)N[C@@H](C)C(=O)N[C@@H](CCCCN)C(=O)N[C@@H](CCCCN)C(=O)N[C@@H](CC(C)C)C(=O)N[C@@H](CCCCN)C(=O)N[C@@H](CCCCN)C(=O)N[C@@H](CCCNC(=N)N)C(=O)O)NC(=O)[C@H]([C@@H](C)O)NC(=O)[C@H](Cc2ccccc2)NC(=O)[C@H](CS)NC1=O [S4, His-Leu-Met-S5-Cys-Phe-Thr-S5-Ala-Lys-Lys-Leu-Lys-Lys-Arg] (H-HLM[S5]CFT[S5]AKKLKKR-OH; staple 4-8; N-terminus and C-terminus assumed) | 100% | 86.67% | 80% | 80% | interrupted | – | – | – | –
CSCC[C@H](NC(=O)[C@H](CC(C)C)NC(=O)[C@@H](N)Cc1c[nH]cn1)C(=O)N[C@@H](C)C(=O)N[C@@]1(C)CCCC=CCCC[C@@](C)(C(=O)N[C@@H](CCCCN)C(=O)N[C@@H](CCCCN)C(=O)N[C@@H](CC(C)C)C(=O)N[C@@H](CCCCN)C(=O)N[C@@H](CCCCN)C(=O)N[C@@H](CCCNC(=N)N)C(=O)O)NC(=O)[C@H](CS)NC(=O)[C@H]([C@@H](C)O)NC(=O)[C@H](Cc2ccccc2)NC1=O [S5, His-Leu-Met-Ala-S5-Phe-Thr-Cys-S5-Lys-Lys-Leu-Lys-Lys-Arg] (H-HLMA[S5]FTC[S5]KKLKKR-OH; staple 5-9; N-terminus and C-terminus assumed) | 100% | 100% | 93.33% | 93.33% | interrupted | – | – | – | –
CSCC[C@H](NC(=O)[C@H](CC(C)C)NC(=O)[C@@H](N)Cc1c[nH]cn1)C(=O)N[C@@H](C)C(=O)N[C@@H](CS)C(=O)N[C@@]1(C)CCCC=CCCC[C@@](C)(C(=O)N[C@@H](CCCCN)C(=O)N[C@@H](CC(C)C)C(=O)N[C@@H](CCCCN)C(=O)N[C@@H](CCCCN)C(=O)N[C@@H](CCCNC(=N)N)C(=O)O)NC(=O)[C@H](C)NC(=O)[C@H](CS)NC(=O)[C@H]([C@@H](C)O)NC1=O [S6, His-Leu-Met-Ala-Cys-S5-Thr-Cys-Ala-S5-Lys-Leu-Lys-Lys-Arg] (H-HLMAC[S5]TCA[S5]KLKKR-OH; staple 6-10; N-terminus and C-terminus assumed) | 100% | 86.67% | 80% | 80% | interrupted | – | – | – | –
S19: chimeric polypeptide Pep2-MR2, amino acid sequence SEQ ID NO: 19 (HLYVSPWGGHLMACFTCAKKLKKR; chimeric polypeptide Pep2-MR2 S19) | – | – | – | – | – | 100% | 100% | 90% | 90%
S20: chimeric polypeptide TAT-MR2, amino acid sequence SEQ ID NO: 20 (YGRKKRRQRRRGGHLMACFTCAKKLKKR; chimeric polypeptide TAT-MR2 S20) | – | – | – | – | – | 100% | 91.67% | 75% | 75%
S21: chimeric polypeptide Antp-MR2, amino acid sequence SEQ ID NO: 21 (RQIKIWFQNRRMKWKKGGHLMACFTCAKKLKKR; chimeric polypeptide Antp-MR2 S21) | – | – | – | – | – | 100% | 100% | 75% | 75%
